Measured values reported in US20230277553A1, “THERAPEUTIC COMPOSITION OF CURE-PRO COMPOUNDS FOR TARGETED DEGRADATION OF BET DOMAIN PROTEINS, AND METHODS OF MAKING AND USAGE” (CORNELL UNIVERSITY, priority 2020, published 2023).
“Also recorded” adds a separate entry of the source. Residues, ends and D or L forms follow the SMILES beside them. *: point of attachment. Cbz = O=C(OCc1ccccc1)*

Key:
Format in all cases: cell-based
BRD4 [1] = biological target: T1, BRD4 (Homo sapiens, UniProt O60885); assay: CURE-PRO-mediated BRD4 degradation with VHL ligands, WES (ProteinSimple), MCF7 cells; set-up: endogenous in cells; settings: for Inhibition of BRD-E2 + 8305 mediated BRD4 degradation by proteasome inhibitor / Inhibition of BRD-E20 + 8305 mediated BRD4 degradation by proteasome inhibitor: MCF7, monomers 10 μM each, inhibitor 1 μM pre-incubation
Procedure: (§1) All cell lines were purchased from ATCC or DSMZ and grown at 37° C. with 5% CO2. Human HeLa cells were cultured in complete growth medium (Dulbecco's modified Eagle's medium (DMEM) supplemented with 10% FBS); MCF7 cells were cultured in complete growth medium (Dulbecco's modified Eagle's medium (DMEM) supplemented with 10% FBS and 0.01 mg/ml human recombinant insulin (Sigma Aldrich); Namalwa and MOLM-13 cells were cultured in complete growth medium (RPMI 1640 medium supplemented with 10% FBS); MV-4-11 were cultured in complete growth medium (Iscove's Modified Dulbecco's medium, supplemented with 10% FBS); HCT116 cells were cultured in complete growth medium (McCoy's 5a Medium supplemented with 10% FBS). For cellular degradation of BRD4 studies, cells were seeded in a 12-well plate at 70-80% confluency, allowed to attach overnight, and incubated with the indicated compounds for the indicated time. When indicated, a 15-minute pretreatment with 10 μM pomalidomide, 10 μM VHL298, 10 μM Nutlin3a, 1 μM MG-132 or 1 μM Carfilzomib was performed before the addition of CURE-PROs. For washout studies, after CURE-PRO treatment, media was aspirated and incubated with complete medium for the indicated time before lysis.
(§2) WES Simple analysis was performed on WES system (ProteinSimple-Biotechne) according to the manufacturer's instructions. Total protein concentrations of cell lysates were determined by the Pierce BCA kit (Thermo Fisher). 3 μL of 0.3 μg/μL of the protein lysate was loaded onto a 12- to 230-kDa WES assay plate (ProteinSimple) where 300 nL sample was withdrawn through a capillary, subjected to electrophoretic separation of proteins by size, and followed by the simultaneous, HRP-based detection of proteins using the Anti-Rabbit Detection Module (Proteinsimple: #DM-001). The electropherograms were checked then the automatic peak detection was manually corrected if it was required.
MCF7 cells (3×10^6) were treated for 4-24 hours continually (FIG. 72), or treated for 4h, washed and incubated for a further 4-24 h with the compounds solubilized in DMSO. Compounds were added at 10 μM each. Cells were washed, lysed, and clarified by centrifugation. The total protein concentration was quantified by the BCA method (ThermoFisher Sciences). Standardized protein samples were electrophoresed and imaged as described in the WES Proteinsimple section above. FIG. 69 depicts the CURE-PRO-mediated BRD4 degradation for the BRD-E50 monomer, and VHL ligand, 8305.
(§3) MCF7 cells (3×10^6) were treated for 24 hours with the compounds solubilized in DMSO. CURE-PRO monomers were added at 10 μM each and the proteasomal inhibitors at 1 μM. Standardized protein samples were electrophoresed and imaged as described in the WES Proteinsimple section above. FIGS. 73 and 75 depicts the dependence of the proteasome for CURE-PRO-mediated BRD4 degradation.
MCF7 cells (3×10^6) were treated for 24 hours with the compounds solubilized in DMSO. CURE-PRO monomers were added at 10 μM. FIG. 74 depicts the CURE-PRO-mediated BRD4 degradation for the BRD-E50 monomer, and VHL ligand, 8305 combined in a 1:1 ratio after 24 h.

MV-4-11 cells = assay: CellTiter-Glo cell viability, MV-4-11 cells; settings: for Loss of cellular viability / toxicity, cotreated with cereblon ligands 8046, 8047 and 8066 vs monomers alone: MV-4-11, 72 hours, 1:1, 10 nM-100 μM each
Procedure: CellTiter-Glo® 2.0 Cell Viability Assay (Promega) was carried out following the manufacturer's recommendations. Cells were seeded at a density of 1000 cells/well in a white 96 well plates (Corning, #3917) in a total volume of 100 μl with respective monomers, combinations of BRD ligands together with E3 ligase ligands or vehicle control treatment. After a 72 h incubation, 100 ul of the CellTiter-Glo® substrate was added per well and luminescence was read on a Spectramax M5 (Molecular Devices). Dose-response curves were generated using Graphpad Prism software.
MV-4-11 cells (5×104) were treated for 24 hours with the sample compounds solubilized in DMSO. The compounds were added at 1 nM-100 μM each. Cellular viability was determined using the CellTiter-Glo® Luminescent Cell Viability Assay (Promega) described above. FIGS. 19-22 depict the CURE-PRO-mediated loss of cellular viability for BRD monomers (JQ1 derivatives comprising of catechol linkers), and CRBN ligand, 8049 (pomalidomide derivatives comprising boronic acid linkers) combined in a 1:1 ratio.
MV-4-11 cells (1×104) were treated for 72 hours with the compounds solubilized in DMSO. Compounds were added at 10 nM-100 μM each. Cellular viability was determined using the CellTiter-Glo® Luminescent Cell Viability Assay (Promega) described above. FIGS. 47-54 depict the CURE-PRO-mediated loss of cellular viability for BRD monomers (JQ1 derivatives comprising of boronic acid linkers), and CRBN ligands, 8046, 8047 and 8066 (pomalidomide derivatives comprising diol linkers) combined in a 1:1 ratio.

BRD4 [2] = biological target: T1, BRD4; assay: CURE-PRO-mediated BRD4 degradation with MDM2 ligands, WES (ProteinSimple), HCT116 cells; set-up: endogenous in cells; settings: for Inhibition of BRD-N25 + 8310 mediated BRD4 degradation by proteasome inhibitor: HCT116, monomers 10 μM each, inhibitor 1 μM pre-incubation; for BRD4 degradation, in combination with MDM2 ligand 8314: 1:1 with 8314, 1-10 μM each
Procedure: as §1, §2
(§4) HCT116 cells (3×10^6) were treated for 24 hours with the compounds solubilized in DMSO. Compounds were added at 1 μM-10 μM each. Standardized protein samples were electrophoresed and imaged as described in the WES ProteinSimple section above. FIGS. 59, 60, and 61 depict the concentration-dependence of CURE-PRO-mediated BRD4 degradation using MDM2 ligands.
as §4, with “62” for “59, 60,”, “63” for “61”
as §3, with “HCT116” for “MCF7”, “ProteinSimple” for “Proteinsimple”, “FIG. 68” for “FIGS. 73 and 75”

BRD4 [3] = biological target: T1, BRD4; assay: CURE-PRO-mediated BRD4 degradation, Western blot, HeLa cells; set-up: endogenous in cells; host or cells: HeLa; settings: 24 h
Outline: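 HeLa cells treated 24 h with compounds in DMSO (1-10 μM, 10 μM or 100 μM each; paired monomers combined 1:1), optional 15-min pretreatment with pomalidomide, VHL298, Nutlin3a (10 μM) or MG-132/carfilzomib (1 μM). RIPA lysates, 10-20 μg protein immunoblotted for BRD4 with β-actin, ECL detection.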

BRD4 [4] = biological target: T1, BRD4; assay: Summary of BRD4 degradation by CURE-PRO pairs, estimated from Western Blot or WES (Proteinsimple); set-up: endogenous in cells
From the text: A black check mark indicates efficacy of 30% to 70% or higher protein degradation.

Cc1ncsc1-c1ccc(CNC(=O)[C@@H]2C[C@@H](O)CN2C(=O)[C@@H](NC(=O)c2cccc(O)c2O)C(C)(C)C)cc1 [compound 8305, (2S,4R)-1-((S)-2-(2,3-dihydroxybenzamido)-3,3-dimethylbutanoyl)-4-hydroxy-N-(4-(4-methylthiazol-5-yl)benzyl)pyrrolidine-2-carboxamide]
BRD4 degradation, monomer alone (WES) (BRD4 [1]; MCF7, 10 μM): no degradation of BRD4

O=C1CCC(N2C(=O)c3cccc(CNC(=O)c4cccc(B(O)O)c4)c3C2=O)C(=O)N1 (stereo not shown) [compound 8049]
Loss of cellular viability, monomer alone (MV-4-11 cells; MV-4-11, 24 hours, 1 nM-100 μM): little loss of viability was observed

COc1ccc2c(c1)C(c1ccc(Cl)cc1)=N[C@@H](CC(=O)Nc1cccc(B(O)O)c1)c1nnc(C)n1-2 [BRD-E73, (3-(2-((4S)-6-(4-chlorophenyl)-8-methoxy-1-methyl-4H-benzo[f][1,2,4]triazolo[4,3-a][1,4]diazepin-4-yl)acetamido)phenyl)boronic acid]
Loss of cellular viability / toxicity, cotreated with cereblon ligands 8046, 8047 and 8066 vs monomers alone (MV-4-11 cells): reduced viability; also recorded: increased toxicity

Cc1ncsc1-c1ccc(CNC(=O)[C@@H]2C[C@@H](O)CN2C(=O)[C@@H](NC(=O)C2(C#N)CC2)C(C)(C)C)cc1 [VHL298]
Inhibition of BRD-E50 + 8305 mediated BRD4 degradation by preincubation (BRD4 [1]; MCF7, equimolar final concentrations (10 μM)): attenuates CURE-PRO mediated BRD4 degradation; also recorded: inhibited CURE-PRO mediated degradation; also recorded: inhibits the degradation of BRD4

CC(C)C[C@H](NC(=O)[C@H](CCc1ccccc1)NC(=O)CN1CCOCC1)C(=O)N[C@@H](Cc1ccccc1)C(=O)N[C@@H](CC(C)C)C(=O)[C@@]1(C)CO1 [Carfilzomib]
Inhibition of BRD-N25 + 8310 mediated BRD4 degradation by proteasome inhibitor (BRD4 [2]): inhibited by the pre-incubation
Inhibition of BRD-E2 + 8305 mediated BRD4 degradation by proteasome inhibitor (BRD4 [1]): inhibited by the pre-incubation
Inhibition of BRD-E20 + 8305 mediated BRD4 degradation by proteasome inhibitor (BRD4 [1]): inhibited by the pre-incubation

CCNC(=O)C[C@@H]1N=C(c2ccc(Cl)cc2)c2cc(Sc3ccc(B(O)O)cc3)ccc2-n2c(C)nnc21 [BRD-E75, (4-(((4S)-6-(4-chlorophenyl)-4-(2-(ethylamino)-2-oxoethyl)-1-methyl-4H-benzo[f][1,2,4]triazolo[4,3-a][1,4]diazepin-8-yl)thio)phenyl)boronic acid]
Loss of cellular viability / toxicity, cotreated with cereblon ligands 8046, 8047 and 8066 vs monomers alone (MV-4-11 cells): reduced viability; also recorded: increased toxicity

COc1ccc2c(c1)C(c1ccc(Cl)cc1)=N[C@@H](CC(=O)NCCCCCNC(=O)c1cccc(O)c1O)c1nnc(C)n1-2 [BRD-N8, N-(5-(2-((4S)-6-(4-chlorophenyl)-8-methoxy-1-methyl-4H-benzo[f][1,2,4]triazolo[4,3-a][1,4]diazepin-4-yl)acetamido)pentyl)-2,3-dihydroxybenzamide]
Loss of cellular viability / toxicity, co-dosed with CRBN ligand 8049 (MV-4-11 cells; MV-4-11, 24 hours, 1:1 with 8049, 1 nM-100 μM each): concentration-dependent loss in cellular viability; also recorded: increased toxicity

COc1ccc2c(c1)C(c1ccc(Cl)cc1)=N[C@@H](CC(=O)NCCc1ccc(B(O)O)cc1)c1nnc(C)n1-2 [BRD-E14, (4-(2-(2-((4S)-6-(4-chlorophenyl)-8-methoxy-1-methyl-4H-benzo[f][1,2,4]triazolo[4,3-a][1,4]diazepin-4-yl)acetamido)ethyl)phenyl)boronic acid]
BRD4 degradation, co-treatment with CRBN ligand 8047 (BRD4 [3]; 1:1 with 8047, 10 μM each, Western blot): causes degradation of BRD4; also recorded: Degradation is noted
Degradation of BRD4 in combination with CRBN ligand [drawing 371] (BRD4 [4]; Table 1, CRBN ligand, second drawing (8047)): ✓ (A black check mark indicates efficacy of 30% to 70% or higher protein degradation)
Degradation of BRD4 in combination with VHL ligand [drawing 397] (BRD4 [4]; Table 3, aromatic 1,2-diol-containing VHL ligand, second drawing (8305)): ✓ (A black check mark indicates efficacy of 30% to 70% or higher protein degradation)
BRD4 degradation, in combination with MDM2 ligand 8314 (BRD4 [2]; HCT116, 24 h, WES): caused partial loss of the BRD4 protein; also recorded: Degradation is observed

COc1ccc2c(c1)C(c1ccc(Cl)cc1)=N[C@@H](CC(=O)NCCCCCNC(=O)c1cccc(B(O)O)c1)c1nnc(C)n1-2 [BRD-E8]
Concentration at which BRD4 degradation is observed, co-dosed with 8046 (BRD4 [3]; 1:1 with 8046): 1 µM
BRD4 degradation, co-treatment with CRBN ligand 8046 (BRD4 [3]; 1:1 with 8046, 10 μM each, Western blot): causes degradation of BRD4; also recorded: Degradation is noted
Concentration at which BRD4 degradation is observed, co-dosed with 8046 (BRD4 [3]; 1:1 with 8046, tested 1 nM-1 μM each): 0.1 µM
BRD4 degradation, co-treatment with CRBN ligand 8066 (BRD4 [3]; 1:1 with 8066, 10 μM each (BRD-E10: 10 and 100 μM), Western blot): causes degradation of BRD4; also recorded: Degradation is noted
BRD4 degradation, BRD ligand alone (BRD4 [3]; BRD monomer alone, Western blot): no change in expression
Degradation of BRD4 in combination with CRBN ligand [drawing 372] (BRD4 [4]; Table 1, CRBN ligand, third drawing (8066)): ✓ (A black check mark indicates efficacy of 30% to 70% or higher protein degradation)
Degradation of BRD4 in combination with CRBN ligand [drawing 370] (BRD4 [4]; Table 1, aromatic 1,2-diol- or hindered cis-1,2-diol-containing CRBN ligand, first drawing (8046)): ✓ (A black check mark indicates efficacy of 30% to 70% or higher protein degradation)
BRD4 degradation, in combination with MDM2 ligand 8313 (BRD4 [2]; HCT116, 24 h, 1:1 with 8313, 1-10 μM each, WES): had no effect on BRD4 protein levels
BRD4 degradation, in combination with MDM2 ligand 8314 (BRD4 [2]; HCT116, 24 h, WES): caused partial loss of the BRD4 protein; also recorded: Degradation is observed

CC(C)C[C@@H](C=O)NC(=O)[C@H](CC(C)C)NC(=O)[C@H](CC(C)C)NC(=O)OCc1ccccc1 [MG-132] (Cbz-Leu-Leu-Leu-aldehyde)
Inhibition of BRD-N25 + 8310 mediated BRD4 degradation by proteasome inhibitor (BRD4 [2]): inhibited by the pre-incubation
Inhibition of BRD-E2 + 8305 mediated BRD4 degradation by proteasome inhibitor (BRD4 [1]): inhibited by the pre-incubation
Inhibition of BRD-E20 + 8305 mediated BRD4 degradation by proteasome inhibitor (BRD4 [1]): inhibited by the pre-incubation
